From ChEMBL document CHEMBL3991601, “The target landscape of clinical kinase drugs” (Science, 2017)
The source made the active and inactive calls.

What was measured:
[1] = molecular target: Citron Rho-interacting kinase (Homo sapiens, UniProt O14578)
[2] = molecular target: T1, Serine/threonine-protein kinase Nek2 (Homo sapiens, UniProt P51955)
T1 sequence (P51955 whole entry): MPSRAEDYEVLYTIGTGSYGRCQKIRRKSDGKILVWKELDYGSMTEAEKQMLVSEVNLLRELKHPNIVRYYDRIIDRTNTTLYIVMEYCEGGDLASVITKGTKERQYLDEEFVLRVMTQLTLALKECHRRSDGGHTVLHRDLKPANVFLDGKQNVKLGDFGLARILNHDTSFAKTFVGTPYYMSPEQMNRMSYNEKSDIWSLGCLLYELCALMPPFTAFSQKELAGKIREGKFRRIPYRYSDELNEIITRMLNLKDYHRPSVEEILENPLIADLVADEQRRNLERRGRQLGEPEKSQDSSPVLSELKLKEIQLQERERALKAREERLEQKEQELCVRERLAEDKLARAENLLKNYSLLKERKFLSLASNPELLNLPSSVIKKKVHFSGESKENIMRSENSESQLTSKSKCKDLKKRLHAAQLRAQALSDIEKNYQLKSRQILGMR

[3] = molecular target: Serine/threonine-protein kinase PAK 4 (Homo sapiens, UniProt O96013)
[4] = molecular target: Cyclin-dependent kinase 1 (Homo sapiens, UniProt P06493)
[5] = molecular target: T2, Ras-related protein Rab-27A (Homo sapiens, UniProt P51159)
T2 sequence (P51159 whole entry): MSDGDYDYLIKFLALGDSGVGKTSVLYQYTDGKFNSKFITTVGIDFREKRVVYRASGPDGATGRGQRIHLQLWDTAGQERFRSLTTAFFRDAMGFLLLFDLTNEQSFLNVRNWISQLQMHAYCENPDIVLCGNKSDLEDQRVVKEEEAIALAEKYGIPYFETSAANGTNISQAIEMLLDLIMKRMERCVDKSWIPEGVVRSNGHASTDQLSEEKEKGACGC

[6] = molecular target: Mitogen-activated protein kinase 7 (Homo sapiens, UniProt Q13164)
[7] = molecular target: T3, Glycogen phosphorylase, brain form (Homo sapiens, UniProt P11216)
T3 sequence (P11216 whole entry): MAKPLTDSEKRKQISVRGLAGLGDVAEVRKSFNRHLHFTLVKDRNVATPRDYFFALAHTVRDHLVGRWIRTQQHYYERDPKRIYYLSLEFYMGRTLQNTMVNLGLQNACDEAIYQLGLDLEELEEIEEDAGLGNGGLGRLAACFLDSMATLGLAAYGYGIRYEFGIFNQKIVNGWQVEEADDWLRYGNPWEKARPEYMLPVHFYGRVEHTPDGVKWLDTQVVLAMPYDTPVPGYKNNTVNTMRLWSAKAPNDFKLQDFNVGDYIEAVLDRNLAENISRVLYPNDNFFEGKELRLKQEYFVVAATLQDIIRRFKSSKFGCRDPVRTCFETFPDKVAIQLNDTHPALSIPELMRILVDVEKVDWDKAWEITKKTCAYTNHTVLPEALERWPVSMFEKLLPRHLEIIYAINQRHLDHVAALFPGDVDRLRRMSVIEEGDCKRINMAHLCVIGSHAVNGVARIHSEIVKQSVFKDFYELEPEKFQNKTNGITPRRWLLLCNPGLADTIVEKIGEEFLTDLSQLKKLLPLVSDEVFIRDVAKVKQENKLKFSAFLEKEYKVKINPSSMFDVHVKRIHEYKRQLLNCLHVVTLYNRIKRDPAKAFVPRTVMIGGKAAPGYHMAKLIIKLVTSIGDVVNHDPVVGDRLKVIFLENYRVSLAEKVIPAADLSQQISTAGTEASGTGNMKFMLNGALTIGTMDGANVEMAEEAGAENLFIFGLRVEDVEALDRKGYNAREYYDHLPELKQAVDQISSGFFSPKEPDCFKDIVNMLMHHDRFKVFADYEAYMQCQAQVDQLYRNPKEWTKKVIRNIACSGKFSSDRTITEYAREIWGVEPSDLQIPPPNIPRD

[8] = molecular target: T4, Signal recognition particle receptor subunit alpha (Homo sapiens, UniProt P08240)
T4 sequence (P08240 whole entry): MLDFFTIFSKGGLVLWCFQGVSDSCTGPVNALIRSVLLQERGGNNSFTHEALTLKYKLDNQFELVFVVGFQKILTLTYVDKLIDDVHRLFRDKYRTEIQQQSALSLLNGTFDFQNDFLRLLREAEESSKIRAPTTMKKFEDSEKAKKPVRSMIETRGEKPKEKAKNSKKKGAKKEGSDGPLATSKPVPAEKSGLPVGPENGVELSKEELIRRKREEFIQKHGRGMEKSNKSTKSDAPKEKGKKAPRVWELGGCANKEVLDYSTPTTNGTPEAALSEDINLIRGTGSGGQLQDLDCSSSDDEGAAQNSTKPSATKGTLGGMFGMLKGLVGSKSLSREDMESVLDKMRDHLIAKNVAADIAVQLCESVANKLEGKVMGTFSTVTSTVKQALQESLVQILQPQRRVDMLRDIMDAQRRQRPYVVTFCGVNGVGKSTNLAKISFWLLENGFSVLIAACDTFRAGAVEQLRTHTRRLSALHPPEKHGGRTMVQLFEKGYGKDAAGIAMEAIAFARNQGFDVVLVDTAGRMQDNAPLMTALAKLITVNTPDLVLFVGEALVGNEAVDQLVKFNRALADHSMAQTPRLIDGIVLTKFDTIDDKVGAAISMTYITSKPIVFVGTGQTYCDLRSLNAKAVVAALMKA

[9] = molecular target: Tyrosine-protein kinase Yes (Homo sapiens, UniProt P07947)

Measured: Kd
Note: in the data inactive means no Kd found up to 30 µM.

Sequence of Mitogen-activated protein kinase 7 (Q13164 whole entry): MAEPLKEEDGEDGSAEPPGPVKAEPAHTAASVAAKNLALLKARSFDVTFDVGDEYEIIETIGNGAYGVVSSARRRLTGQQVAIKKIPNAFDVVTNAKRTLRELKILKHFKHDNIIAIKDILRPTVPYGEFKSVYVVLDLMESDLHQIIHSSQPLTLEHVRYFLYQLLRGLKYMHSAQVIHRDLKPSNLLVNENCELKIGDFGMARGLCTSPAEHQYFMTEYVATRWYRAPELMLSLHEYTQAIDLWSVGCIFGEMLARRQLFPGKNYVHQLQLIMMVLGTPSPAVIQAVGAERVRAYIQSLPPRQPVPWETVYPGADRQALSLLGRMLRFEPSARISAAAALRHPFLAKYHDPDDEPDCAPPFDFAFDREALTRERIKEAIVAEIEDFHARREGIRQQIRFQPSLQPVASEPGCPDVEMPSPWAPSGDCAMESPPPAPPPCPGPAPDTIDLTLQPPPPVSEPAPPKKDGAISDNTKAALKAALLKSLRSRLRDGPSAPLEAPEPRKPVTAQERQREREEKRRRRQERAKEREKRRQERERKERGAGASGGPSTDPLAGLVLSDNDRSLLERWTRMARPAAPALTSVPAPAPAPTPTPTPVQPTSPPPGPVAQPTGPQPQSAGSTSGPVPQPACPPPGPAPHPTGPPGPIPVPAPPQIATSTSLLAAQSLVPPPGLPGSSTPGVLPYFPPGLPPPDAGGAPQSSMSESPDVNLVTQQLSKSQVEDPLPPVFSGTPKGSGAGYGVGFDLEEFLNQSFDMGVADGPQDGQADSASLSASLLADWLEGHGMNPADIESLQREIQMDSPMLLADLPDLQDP
Sequence of Cyclin-dependent kinase 1 (P06493 whole entry): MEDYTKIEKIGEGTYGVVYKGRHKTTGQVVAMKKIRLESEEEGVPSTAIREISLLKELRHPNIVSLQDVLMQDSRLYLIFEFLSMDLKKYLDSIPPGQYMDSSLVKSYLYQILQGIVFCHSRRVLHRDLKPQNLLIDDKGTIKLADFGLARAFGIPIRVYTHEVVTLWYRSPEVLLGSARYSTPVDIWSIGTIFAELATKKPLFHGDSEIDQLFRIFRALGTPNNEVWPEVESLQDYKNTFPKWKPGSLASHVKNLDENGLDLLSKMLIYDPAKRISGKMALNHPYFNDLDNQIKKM
Sequence of Tyrosine-protein kinase Yes (P07947 whole entry): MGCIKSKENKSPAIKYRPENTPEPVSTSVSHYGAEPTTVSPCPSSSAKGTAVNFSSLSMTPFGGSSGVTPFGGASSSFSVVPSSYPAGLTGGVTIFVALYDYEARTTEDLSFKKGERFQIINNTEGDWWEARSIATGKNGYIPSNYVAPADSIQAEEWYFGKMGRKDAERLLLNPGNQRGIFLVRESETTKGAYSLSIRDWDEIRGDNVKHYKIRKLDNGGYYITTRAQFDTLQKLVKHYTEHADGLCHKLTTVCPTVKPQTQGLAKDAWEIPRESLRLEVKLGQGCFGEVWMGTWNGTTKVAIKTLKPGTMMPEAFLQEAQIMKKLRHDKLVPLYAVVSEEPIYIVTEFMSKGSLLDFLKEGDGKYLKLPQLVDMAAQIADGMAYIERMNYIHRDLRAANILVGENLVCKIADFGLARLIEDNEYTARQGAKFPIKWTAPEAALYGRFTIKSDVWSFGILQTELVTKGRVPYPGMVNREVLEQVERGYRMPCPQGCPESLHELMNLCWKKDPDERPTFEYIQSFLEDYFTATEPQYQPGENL
Sequence of Citron Rho-interacting kinase (O14578 whole entry): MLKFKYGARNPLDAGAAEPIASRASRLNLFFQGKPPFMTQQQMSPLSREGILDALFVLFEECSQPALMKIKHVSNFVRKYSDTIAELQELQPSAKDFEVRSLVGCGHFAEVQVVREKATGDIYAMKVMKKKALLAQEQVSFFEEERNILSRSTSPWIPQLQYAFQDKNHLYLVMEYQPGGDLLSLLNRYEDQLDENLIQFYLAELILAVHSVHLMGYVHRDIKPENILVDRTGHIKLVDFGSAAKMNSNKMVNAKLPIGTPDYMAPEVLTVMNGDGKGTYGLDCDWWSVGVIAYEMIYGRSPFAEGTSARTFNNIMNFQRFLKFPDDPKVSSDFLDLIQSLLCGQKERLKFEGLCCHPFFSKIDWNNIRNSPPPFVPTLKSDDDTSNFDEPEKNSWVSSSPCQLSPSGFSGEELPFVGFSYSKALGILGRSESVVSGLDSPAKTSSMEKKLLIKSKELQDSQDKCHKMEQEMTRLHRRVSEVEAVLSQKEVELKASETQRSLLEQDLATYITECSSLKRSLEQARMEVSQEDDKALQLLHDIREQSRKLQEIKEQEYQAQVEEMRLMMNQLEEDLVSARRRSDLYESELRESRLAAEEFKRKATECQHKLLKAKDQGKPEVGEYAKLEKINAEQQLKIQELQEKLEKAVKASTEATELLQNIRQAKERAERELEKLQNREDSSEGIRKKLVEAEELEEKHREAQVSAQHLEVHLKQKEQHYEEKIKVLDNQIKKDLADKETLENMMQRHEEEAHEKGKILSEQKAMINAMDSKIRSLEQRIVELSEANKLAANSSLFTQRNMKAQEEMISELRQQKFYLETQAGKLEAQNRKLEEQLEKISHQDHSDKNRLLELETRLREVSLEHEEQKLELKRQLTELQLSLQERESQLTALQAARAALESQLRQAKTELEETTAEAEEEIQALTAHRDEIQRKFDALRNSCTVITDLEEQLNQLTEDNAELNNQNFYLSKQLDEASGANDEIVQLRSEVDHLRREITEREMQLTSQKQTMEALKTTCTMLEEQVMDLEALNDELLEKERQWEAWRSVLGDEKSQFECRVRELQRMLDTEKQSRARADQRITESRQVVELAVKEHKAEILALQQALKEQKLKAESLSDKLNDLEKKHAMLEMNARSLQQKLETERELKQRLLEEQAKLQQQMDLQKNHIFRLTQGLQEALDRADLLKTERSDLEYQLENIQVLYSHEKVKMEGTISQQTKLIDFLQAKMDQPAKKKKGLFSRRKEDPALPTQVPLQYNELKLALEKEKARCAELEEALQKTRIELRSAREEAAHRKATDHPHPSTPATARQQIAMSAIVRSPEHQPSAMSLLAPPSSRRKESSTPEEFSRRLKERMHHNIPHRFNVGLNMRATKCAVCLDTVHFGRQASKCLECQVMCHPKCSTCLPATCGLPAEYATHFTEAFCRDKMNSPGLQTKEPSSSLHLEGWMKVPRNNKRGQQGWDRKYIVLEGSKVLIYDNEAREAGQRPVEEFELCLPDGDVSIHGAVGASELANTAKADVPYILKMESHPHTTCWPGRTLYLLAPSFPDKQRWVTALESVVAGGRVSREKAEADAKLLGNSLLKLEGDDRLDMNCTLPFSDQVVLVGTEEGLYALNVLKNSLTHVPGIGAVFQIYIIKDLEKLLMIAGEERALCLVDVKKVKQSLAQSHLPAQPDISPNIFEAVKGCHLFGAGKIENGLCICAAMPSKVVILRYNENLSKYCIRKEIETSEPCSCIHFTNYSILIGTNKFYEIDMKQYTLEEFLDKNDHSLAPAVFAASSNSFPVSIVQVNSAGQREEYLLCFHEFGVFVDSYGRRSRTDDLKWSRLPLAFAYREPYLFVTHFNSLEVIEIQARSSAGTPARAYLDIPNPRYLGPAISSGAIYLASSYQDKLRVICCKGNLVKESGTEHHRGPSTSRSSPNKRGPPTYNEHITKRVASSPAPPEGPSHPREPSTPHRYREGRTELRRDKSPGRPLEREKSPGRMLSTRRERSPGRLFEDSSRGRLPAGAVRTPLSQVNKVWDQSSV
Sequence of Serine/threonine-protein kinase PAK 4 (O96013 whole entry): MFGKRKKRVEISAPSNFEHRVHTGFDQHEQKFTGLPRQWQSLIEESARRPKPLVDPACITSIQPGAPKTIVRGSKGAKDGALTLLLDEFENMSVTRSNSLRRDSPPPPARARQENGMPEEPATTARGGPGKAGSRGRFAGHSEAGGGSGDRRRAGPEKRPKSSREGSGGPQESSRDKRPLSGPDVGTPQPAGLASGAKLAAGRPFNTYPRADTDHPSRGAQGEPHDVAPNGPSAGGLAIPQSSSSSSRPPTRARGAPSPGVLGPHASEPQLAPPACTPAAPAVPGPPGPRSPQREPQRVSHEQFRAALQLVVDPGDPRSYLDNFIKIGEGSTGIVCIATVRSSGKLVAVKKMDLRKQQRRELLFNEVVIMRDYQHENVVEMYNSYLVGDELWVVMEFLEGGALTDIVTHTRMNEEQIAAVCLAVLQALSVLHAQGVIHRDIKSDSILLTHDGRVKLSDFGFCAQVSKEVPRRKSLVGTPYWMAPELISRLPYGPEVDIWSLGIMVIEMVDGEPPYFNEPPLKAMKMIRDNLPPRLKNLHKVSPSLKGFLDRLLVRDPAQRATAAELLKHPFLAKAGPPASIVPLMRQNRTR

CNS(=O)(=O)Nc1nccc(Cc2c(C)c3ccc(Oc4ncccn4)cc3oc2=O)c1F [AVUTOMETINIB]
inactive: [1] > 30 µM | [2] > 30 µM | [3] > 30 µM | [4] > 30 µM | [5] > 30 µM | [6] > 30 µM | [7] > 30 µM | [8] > 30 µM | [9] > 30 µM

C[C@@H](Nc1cc(F)cc(F)c1)c1cc(C(=O)N(C)C)cc2c(=O)cc(N3CCOCC3)oc12 [AZD-8186]
inactive: [1] > 30 µM | [2] > 30 µM | [3] > 30 µM | [4] > 30 µM | [5] > 30 µM | [6] > 30 µM | [7] > 30 µM | [8] > 30 µM | [9] > 30 µM

Cc1ccc(S(=O)(=O)Nc2nc3ccccc3nc2Nc2ccc3nsnc3c2)cc1
inactive: [1] > 30 µM | [2] > 30 µM | [3] > 30 µM | [4] > 30 µM | [5] > 30 µM | [6] > 30 µM | [7] > 30 µM | [8] > 30 µM | [9] > 30 µM

CN1CCC(CNc2ccc3ncc(-c4cccc(OC(F)(F)F)c4)n3n2)CC1 [SGI-1776]
inactive: [1] > 30 µM | [2] > 30 µM | [3] > 30 µM | [4] > 30 µM | [5] > 30 µM | [6] > 30 µM | [7] > 30 µM | [8] > 30 µM | [9] > 30 µM

C=CC(=O)N1CCC(Oc2cc3c(Nc4ccc(Cl)c(Cl)c4F)ncnc3cc2OC)CC1 [POZIOTINIB]
inactive: [1] > 30 µM | [2] > 30 µM | [3] > 30 µM | [4] > 30 µM | [5] > 30 µM | [6] > 30 µM | [7] > 30 µM | [8] > 30 µM | [9] > 30 µM
